Reference: patent publication US11787810B2, “Diacylglyceride O-acyltransferase 2 inhibitors” (Merck Sharp & Dohme Corp., priority 2020, dated 2023)

target: human DGAT2 (hDGAT2) (Homo sapiens (Human), UniProt Q96PD7); assay: DGAT2 enzymatic activity assay (13C18-triolein formation, LC/MS/MS); format: biochemical; conditions: hDGAT2 Sf-9 membrane prep, 25 μM diolein, 5 μM 13C oleoyl-CoA; read-out: Human DGAT2 IC50
Protocol: Sf-9 insect cells were maintained in Grace's insect cell culture medium with 10% heated-inactivated fetal bovine serum, 1% Pluronic F-68 and 0.14 μg/ml Kanamycine sulfate at 27° C. in a shaker incubator. After infection with untagged baculovirus expressing human DGAT2 (hDGAT2) at multiplicity of infection (MOI) 3 for 48 hours, cells were harvested. Cell pellets were suspended in buffer containing 10 mM Tris-HCl pH 7.5, 1 mM EDTA, 250 mM sucrose and Complete Protease Inhibitor Cocktail (Sigma Aldrich), and sonicated on ice. Cell debris were removed by centrifugation at 2000×g for 15 minutes. Membrane fractions were isolated by ultracentrifugation (100,000×g), resuspended in the same buffer, and frozen (−80° C.) for later use. The protein concentration was determined with the Pierce™ BCA Protein Assay Kit (Thermo Fisher Scientific). Expression of protein levels was analyzed by immunoblotting with rabbit anti-DGAT2 antibody (Abcam, ab102831) and donkey anti-rabbit IgG H&L Alexa Fluor® 647 (Abcam, ab150075) followed by detection using Typhoon FLA9000 (GE Healthcare).
LC/MS/MS analyses were performed using Thermal Fisher's LX4-TSQ Vantage system. This system consists of an Agilent binary high-performance liquid chromatography (HPLC) pumps and a TSQ Vantage triple quadrupole MS/MS instrument. For each sample, 2 μL samples from the top organic layer of in-plate liquid-liquid extraction were injected onto a Thermo Betabasic C4 column (2.1 mm×20 mm, 5 μm particle size). The samples were then eluted using the following conditions; mobile phase: Isopropanol:acetonitrile/10 mM ammonium formate=50/35/15 (v/v/v), flow rate: 0.8 mL/min, temperature: 25° C. Data was acquired in positive mode using a heated electrospray ionization (HESI) interface. The operational parameters for the TSQ Vantage MS/MS instrument were a spray voltage of 3000 V, capillary temperature of 280° C., vaporizer temperature 400° C., sheath gas 45 arbitrary unit, Aux gas 10 arbitrary units, S-lens 165 and collision gas 1.0 mTorr. […] (SRM) chromatograms of ^13C18-triolein (Q1: 920.8>Q3:621.3) and internal standard ^13C21-triolein (Q1: 923.8>Q3:617.3) were collected for 33 sec. The peak area was integrated by Xcalibur Quan software. The ratio between the ^13C18triolein generated in the reaction and spiked in internal standard ^13C21-triolein was used to generate percentage inhibition and IC50 values. Compound percentage inhibition was calculated by the following formula: Inhibition %=1-[(compound response−low control)/(high control−low control)]×100%. Potent compounds were titrated and IC50 were calculated by 4 parameter sigmoidal curve fitting formula.
DGAT2 activity was determined by measuring the amount of enzymatic product ^13C18-triolein (^13C-1,2,3-Tri(cis-9-octadecenoyl)glycerol) using the membrane prep mentioned above. The assay was carried out in ABgene 384-well assay plates in a final volume of 25 μL at rt. The assay mixture contained the following: assay buffer (100 mM Tris·Cl, pH 7.0, 20 mM MgCl2, 5% ethanol), 25 μM of diolein, 5 μM of ^13C oleoyl-CoA and 8 ng/μL of DGAT2 membrane.

human DGAT2 (hDGAT2), sequence (Q96PD7 whole entry): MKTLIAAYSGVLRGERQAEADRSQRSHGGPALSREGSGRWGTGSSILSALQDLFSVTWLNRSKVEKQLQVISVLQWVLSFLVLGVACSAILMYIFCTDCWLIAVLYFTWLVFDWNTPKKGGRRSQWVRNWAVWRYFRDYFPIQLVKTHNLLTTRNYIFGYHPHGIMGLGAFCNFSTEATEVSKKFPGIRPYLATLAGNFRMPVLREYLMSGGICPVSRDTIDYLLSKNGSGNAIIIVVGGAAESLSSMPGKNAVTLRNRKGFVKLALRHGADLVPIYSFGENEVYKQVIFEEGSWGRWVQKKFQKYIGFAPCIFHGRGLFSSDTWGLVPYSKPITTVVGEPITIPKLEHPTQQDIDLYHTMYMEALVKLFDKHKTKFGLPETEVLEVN

IC50	Structure (SMILES)
41 nM	CC(C)n1nc(-c2cccc(OC(F)F)c2)c2ncc(C(=O)NC(CO)C(F)(F)F)cc21 (racemic) [Example 52, 3-(3-(difluoromethoxy)phenyl)-1-isopropyl-N-(1,1,1-trifluoro-3-hydroxypropan-2-yl)-1H-pyrazolo[4,3-b]pyridine-6-carboxamide]
16 nM	CC(C)n1nc(-c2cccc(OC(F)F)c2)c2ncc(C(=O)NC3(C)CCOC3)cc21 (single isomer, unassigned) [Example 48b, 3-(3-(difluoromethoxy)phenyl)-1-isopropyl-N-(3-methyltetrahydrofuran-3-yl)-1H-pyrazolo[4,3-b]pyridine-6-carboxamide]
90 nM	CC1(NC(=O)c2cnc3c(-c4cccc(OC(F)F)c4)nn(CC(O)C(F)(F)F)c3c2)CS(=O)(=O)C1 (single isomer, unassigned) [Example 67b, 3-(3-(difluoromethoxy)phenyl)-N-(3-methyl-1,1-dioxidothietan-3-yl)-1-(3,3,3-trifluoro-2-hydroxypropyl)-1H-pyrazolo[4,3-b]pyridine-6-carboxamide]
0.8 nM	C[C@]1(NC(=O)c2cnc3c(-c4cccc(OC(F)F)c4)nn(-c4ccc(F)cc4)c3c2)CCS(=O)(=O)C1 [Example 1, (S)-3-(3-(difluoromethoxy)phenyl)-1-(4-fluorophenyl)-N-(3-methyl-1,1-dioxidotetrahydrothiophen-3-yl)-1H-pyrazolo[4,3-b]pyridine-6-carboxamide]
27 nM	CCOc1cc(-c2nn(C(C)C)c3cc(C(=O)NC4(C)CS(=O)(=O)C4)cnc23)c(F)cn1 [Example 126, 3-(2-ethoxy-5-fluoropyridin-4-yl)-1-isopropyl-N-(3-methyl-1,1-dioxidothietan-3-yl)-1H-pyrazolo[4,3-b]pyridine-6-carboxamide]
73 nM	CC1(NC(=O)c2cnc3c(-c4cccc(OC(F)F)c4)nn(CC(O)C(F)(F)F)c3c2)CS(=O)(=O)C1 (single isomer, unassigned) [Example 67a, 3-(3-(difluoromethoxy)phenyl)-N-(3-methyl-1,1-dioxidothietan-3-yl)-1-(3,3,3-trifluoro-2-hydroxypropyl)-1H-pyrazolo[4,3-b]pyridine-6-carboxamide]
132 nM	CC(C)n1nc(-c2cccc(OC(F)F)c2)c2ncc(C(=O)NC3(C(C)O)CCOC3)cc21 (single isomer, unassigned) [Example 50a, 3-(3-(difluoromethoxy)phenyl)-N-(3-(1-hydroxyethyl)tetrahydrofuran-3-yl)-1-isopropyl-1H-pyrazolo[4,3-b]pyridine-6-carboxamide]
4.7 nM	CC(C)n1nc(-c2cccc(OC(F)F)c2)c2ncc(C(=O)NC3(C)CS(=O)(=O)C3)cc21 [Example 25, 3-[3-(difluoromethoxy)phenyl]-1-isopropyl-N-(3-methyl-1,1-dioxidothietan-3-yl)-1H-pyrazolo[4,3-b]pyridine-6-carboxamide]
38 nM	CC(C)n1nc(-c2cccc(OC(F)F)c2)c2ncc(C(=O)NC3(CO)CCOC3)cc21 (single isomer, unassigned) [Example 39b, 3-[3-(difluoromethoxy)phenyl]-N-[3-(hydroxymethyl)tetrahydrofuran-3-yl]-1-isopropyl-pyrazolo[4,3-b]pyridine-6-carboxamide]
9 nM	CC1(NC(=O)c2cnc3c(-c4cccc(OC(F)F)c4)nn(C4CCOCC4F)c3c2)CS(=O)(=O)C1 (single isomer, unassigned) [Example 75b, 3-(3-(difluoromethoxy)phenyl)-1-(3-fluorotetrahydro-2H-pyran-4-yl)-N-(3-methyl-1,1-dioxidothietan-3-yl)-1H-pyrazolo[4,3-b]pyridine-6-carboxamide]
179 nM	CC(O)Cn1nc(-c2cccc(OC(F)F)c2)c2ncc(C(=O)NC3(C)CS(=O)(=O)C3)cc21 (single isomer, unassigned) [Example 68b, 3-(3-(difluoromethoxy)phenyl)-1-(2-hydroxypropyl)-N-(3-methyl-1,1-dioxidothietan-3-yl)-1H-pyrazolo[4,3-b]pyridine-6-carboxamide]
6.3 nM	CC(C)n1nc(-c2cccc(OC(F)F)c2)c2ncc(C(=O)NC3(C)CCOC3)cc21 (single isomer, unassigned) [Example 48a, 3-(3-(difluoromethoxy)phenyl)-1-isopropyl-N-(3-methyltetrahydrofuran-3-yl)-1H-pyrazolo[4,3-b]pyridine-6-carboxamide]
21 nM	CC1(NC(=O)c2cnc3c(-c4cccc(OC(F)F)c4)nn(C4CCOC(C(F)(F)F)C4)c3c2)CS(=O)(=O)C1 (single isomer, unassigned) [Example 76a, 3-(3-(difluoromethoxy)phenyl)-N-(3-methyl-1,1-dioxidothietan-3-yl)-1-(2-(trifluoromethyl)tetrahydro-2H-pyran-4-yl)-1H-pyrazolo[4,3-b]pyridine-6-carboxamide]
18 nM	CC(O)Cn1nc(-c2cccc(OC(F)F)c2)c2ncc(C(=O)NC3(C)CS(=O)(=O)C3)cc21 (single isomer, unassigned) [Example 68a, 3-(3-(difluoromethoxy)phenyl)-1-(2-hydroxypropyl)-N-(3-methyl-1,1-dioxidothietan-3-yl)-1H-pyrazolo[4,3-b]pyridine-6-carboxamide]
298 nM	CC(C)n1nc(-c2cccc(C3(O)CC3)c2)c2ncc(C(=O)NC3(C)CS(=O)(=O)C3)cc21 [Example 127, 3-(3-(1-Hydroxycyclopropyl)phenyl)-1-isopropyl-N-(3-methyl-1,1-dioxidothietan-3-yl)-1H-pyrazolo[4,3-b]pyridine-6-carboxamide]
29 nM	CC1(NC(=O)c2cnc3c(-c4cccc(OC(F)F)c4)nn(C4CCOCC4F)c3c2)CS(=O)(=O)C1 (single isomer, unassigned) [Example 75a, 3-(3-(difluoromethoxy)phenyl)-1-(3-fluorotetrahydro-2H-pyran-4-yl)-N-(3-methyl-1,1-dioxidothietan-3-yl)-1H-pyrazolo[4,3-b]pyridine-6-carboxamide]
15 nM	CC(C)n1nc(-c2cccc(OC(F)F)c2)c2ncc(C(=O)NC(C)(C)C(C)O)cc21 (single isomer, unassigned) [Example 46a, 3-(3-(difluoromethoxy)phenyl)-N-(3-hydroxy-2-methylbutan-2-yl)-1-isopropyl-1H-pyrazolo[4,3-b]pyridine-6-carboxamide]
5450 nM	COC1(c2cccc(-c3nn(C(C)C)c4cc(C(=O)NC5(C)CS(=O)(=O)C5)cnc34)c2)CC1 [Example 128, 1-isopropyl-3-(3-(1-methoxycyclopropyl)phenyl)-N-(3-methyl-1,1-dioxidothietan-3-yl)-1H-pyrazolo[4,3-b]pyridine-6-carboxamide]

same assay, conditions: table head without 'Human'; same membrane assay; read-out: DGAT2 IC50

IC50	Structure (SMILES)
11 nM	CC(n1nc(-c2cc(OC(F)F)ccc2F)c2ncc(C(=O)NC3(C)CS(=O)(=O)C3)cc21)C(C)(C)O (single isomer, unassigned) [Example 131a, 3-(5-(difluoromethoxy)-2-fluorophenyl)-1-(3-hydroxy-3-methylbutan-2-yl)-N-(3-methyl-1,1-dioxidothietan-3-yl)-1H-pyrazolo[4,3-b]pyridine-6-carboxamide]
2.8 nM	CC(n1nc(-c2cccc(OC(F)F)c2)c2ncc(C(=O)NC3(C)CS(=O)(=O)C3)cc21)C(C)(C)O (single isomer, unassigned) [Example 130a, 3-(3-(difluoromethoxy)phenyl)-1-(3-hydroxy-3-methylbutan-2-yl)-N-(3-methyl-1,1-dioxidothietan-3-yl)-1H-pyrazolo[4,3-b]pyridine-6-carboxamide]
231 nM	CC(n1nc(-c2cc(OC(F)(F)F)ccc2F)c2ncc(C(=O)NC3(C)CS(=O)(=O)C3)cc21)C(C)(C)O (single isomer, unassigned) [Example 132a, 3-(2-fluoro-5-(trifluoromethoxy)phenyl)-1-(3-hydroxy-3-methylbutan-2-yl)-N-(3-methyl-1,1-dioxidothietan-3-yl)-1H-pyrazolo[4,3-b]pyridine-6-carboxamide]
